Data reported in patent US20110105380A1, “Protection of Nano-Scale Particles from Immune Cell Uptake” (THE TRUSTEES OF THE UNIVERSITY OF PENNSYLVANIA, priority 2009, published 2011).

Tested on: non-muscle myosin IIA at the phagocytic synapse of THP-1 macrophages
Test: Protein localization to the phagocytic synapse (immunofluorescence)
Assay type: cell-based, human
Conditions: blebbistatin 50 μM, 10 min pre-incubation
Protocol: FIG. 4, comprising FIGS. 4A-4B, illustrates CD47 inhibiting myosin localization as similar to blebbistatin. Phagocytic synapses of THP-1 macrophages with IgG-opsonized sheep- or human-RBC (37° C., 10 min) after pre-incubation with blebbistatin (50 μM, 10 min). DMSO was used as a control. FIG. 4A depicts cells fixed and immunostained for non-muscle myosin IIA, F-actin, and Paxillin-Y^118. The scale bars are […]. FIG. 4B depicts quantitation of protein localization to the phagocytic synapse relative to the cytoplasmic intensity set at 1.0 (n=5 cells, ±SD). For cytoskeletal involvement at the phagocytic synapse, streptavidin beads opsonized with rabbit anti-streptavidin FITC. Opsonized beads of different sizes were added to THP-1 cells, PMA treated and immediately placed at 4° C. for 10 min to synchronize phagocytosis. […] For studies involving blebbistatin (EMD Biosciences), macrophages were treated for 10 min at 4° C. prior to temperature increase to 37° C. or for 45 min and 37° C. Macrophages treated with DMSO were used to verify no solvent effects. Immunostaining was performed by permeabilization with 0.1% Triton X-100 in PBS for 20 min before blocking for 1 h with 5% BSA in PBS. Staining with primary antibodies was carried out for 1 h at room temperature in PBS. […] Samples were analyzed by differential interference contrast (DIC) and fluorescence microscopy. […]

Compound: Cc1ccc2c(c1)C(=O)C1(O)CCN(c3ccccc3)C1=N2 (stereo not shown) [blebbistatin]
- enrichment of NMM IIA at synaptic contacts with sheep RBC targets: inhibited enrichment of NMM IIA
